Data reported in ChEMBL document CHEMBL3217590, “Discovery of a new class of dithiocarbamates and rhodanine scaffolds as potent antifungal agents: synthesis, biology and molecular docking” (Medchemcomm, 2012).
Converted amounts (≈) assume the structure as drawn.

Key:
Candida albicans [1] = assay: Antifungal activity against Candida albicans after 24 to 48 hrs by broth microdilution technique; format: functional
Candida parapsilosis = assay: Antifungal activity against Candida parapsilosis ATCC22019 after 24 to 48 hrs by broth microdilution technique; format: functional; conditions: Lodderomyces parapsilosis
Sporothrix schenckii = assay: Antifungal activity against Sporothrix schenckii after 72 to 96 hrs by broth microdilution technique; format: functional
[2] = test system: Trichophyton mentagrophytes; assay: Antifungal activity against Trichophyton mentagrophytes after 72 to 96 hrs by broth microdilution technique; format: functional
Aspergillus fumigatus = assay: Antifungal activity against Aspergillus fumigatus after 72 to 96 hrs by broth microdilution technique; format: functional
Cryptococcus neoformans = assay: Antifungal activity against Cryptococcus neoformans after 24 to 48 hrs by broth microdilution technique; format: functional
Candida albicans [3] = assay: Anticandidal activity against Candida albicans ATCC10231 after 24 to 48 hrs by broth microdilution technique; format: functional
Candida albicans [4] = assay: Anticandidal activity against Candida albicans ATCC14053 after 24 to 48 hrs by broth microdilution technique; format: functional
Candida albicans [5] = assay: Anticandidal activity against Candida albicans CDRI after 24 to 48 hrs by broth microdilution technique; format: functional
Candida albicans [6] = assay: Anticandidal activity against Candida albicans isolated from patient after 24 to 48 hrs by broth microdilution technique; format: functional
Candida albicans [7] = assay: Anticandidal activity against Candida albicans MTCC183 after 24 to 48 hrs by broth microdilution technique; format: functional
Candida albicans [8] = assay: Anticandidal activity against Candida albicans ATCC750 after 24 to 48 hrs by broth microdilution technique; format: functional
Candida albicans [9] = assay: Anticandidal activity against Candida albicans ATCC-MYA 2950 after 24 to 48 hrs by broth microdilution technique; format: functional
Candida albicans [10] = assay: Anticandidal activity against amphotericin-B resistant Candida albicans after 24 to 48 hrs by broth microdilution technique; format: functional
Candida albicans [11] = assay: Ratio of fluconazole MIC to compound MIC against amphotericin-B resistant Candida albicans after 24 to 48 hrs by broth microdilution technique; format: functional
L929 [12] = assay: Cytotoxicity against mouse L929 cells assessed as morphological changes up to 3.12 ug/ml after 24 hrs by giemsa staining based phase contrast microscopy; format: cell-based; conditions: l929, 24 h
L929 [13] = assay: Cytotoxicity against mouse L929 cells assessed as decline in cell survival at 12.5 to 50 ug/ml after 24 hrs by spectrophotometric analysis; format: cell-based; conditions: l929, 24 h

SMILES: COc1ccc(/C=C2\SC(=S)N(Cc3ccncc3)C2=O)cc1
- MIC (Candida albicans [1]): 50 µg/mL (≈ 146 µM)
- MIC (Candida parapsilosis): 50 µg/mL (≈ 146 µM)
- MIC (Sporothrix schenckii): > 50 µg/mL
- MIC [2]: > 50 µg/mL
- MIC (Aspergillus fumigatus): > 50 µg/mL
- MIC (Cryptococcus neoformans): > 50 µg/mL

SMILES: COc1ccc(/C=C2\SC(=S)N(Cc3ccncc3)C2=O)cc1OC
- MIC (Candida albicans [1]): 25 µg/mL (≈ 67.1 µM)
- MIC (Candida parapsilosis): 25 µg/mL (≈ 67.1 µM)
- MIC (Sporothrix schenckii): > 50 µg/mL
- MIC [2]: > 50 µg/mL
- MIC (Aspergillus fumigatus): > 50 µg/mL
- MIC (Cryptococcus neoformans): 50 µg/mL (≈ 134 µM)

SMILES: O=C1/C(=C/c2ccncc2)SC(=S)N1Cc1ccncc1
- MIC (Candida albicans [1]): 1.56 µg/mL (≈ 4.98 µM)
- MIC (Candida parapsilosis): 1.56 µg/mL (≈ 4.98 µM)
- MIC (Sporothrix schenckii): 3.12 µg/mL (≈ 9.96 µM)
- MIC [2]: 3.12 µg/mL (≈ 9.96 µM)
- MIC (Aspergillus fumigatus): 25 µg/mL (≈ 79.8 µM)
- MIC (Cryptococcus neoformans): 1.56 µg/mL (≈ 4.98 µM)
- MIC (Candida albicans [3]): 1.56 µg/mL (≈ 4.98 µM)
- MIC (Candida albicans [4]): 6.25 µg/mL (≈ 19.9 µM)
- MIC (Candida albicans [5]): 3.12 µg/mL (≈ 9.96 µM)
- MIC (Candida albicans [6]): 3.12 µg/mL (≈ 9.96 µM)
- MIC (Candida albicans [7]): 0.78 µg/mL (≈ 2.49 µM)
- MIC (Candida albicans [8]): 6.25 µg/mL (≈ 19.9 µM)
- MIC (Candida albicans [9]): 1.56 µg/mL (≈ 4.98 µM)
- MIC (Candida albicans [10]): 3.12 µg/mL (≈ 9.96 µM)
- Ratio (Candida albicans [11]): 2
- Activity (L929 [12]): Non-toxic
- Activity (L929 [13]): Toxic

SMILES: O=C1/C(=C/c2cccnc2)SC(=S)N1Cc1ccncc1
- MIC (Candida albicans [1]): 1.56 µg/mL (≈ 4.98 µM)
- MIC (Candida parapsilosis): 6.25 µg/mL (≈ 19.9 µM)
- MIC (Sporothrix schenckii): 1.56 µg/mL (≈ 4.98 µM)
- MIC [2]: 6.25 µg/mL (≈ 19.9 µM)
- MIC (Aspergillus fumigatus): 25 µg/mL (≈ 79.8 µM)
- MIC (Cryptococcus neoformans): 3.12 µg/mL (≈ 9.96 µM)
- MIC (Candida albicans [3]): 3.12 µg/mL (≈ 9.96 µM)
- MIC (Candida albicans [4]): 0.78 µg/mL (≈ 2.49 µM)
- MIC (Candida albicans [5]): 1.56 µg/mL (≈ 4.98 µM)
- MIC (Candida albicans [6]): 3.12 µg/mL (≈ 9.96 µM)
- MIC (Candida albicans [7]): 0.78 µg/mL (≈ 2.49 µM)
- MIC (Candida albicans [8]): 3.12 µg/mL (≈ 9.96 µM)
- MIC (Candida albicans [9]): 1.56 µg/mL (≈ 4.98 µM)
- MIC (Candida albicans [10]): 6.25 µg/mL (≈ 19.9 µM)
- Ratio (Candida albicans [11]): 1

SMILES: O=C1/C(=C/c2cc3c(cc2[N+](=O)[O-])OCO3)SC(=S)N1Cc1ccncc1
- MIC (Candida albicans [1]): 0.78 µg/mL (≈ 1.94 µM)
- MIC (Candida parapsilosis): 3.12 µg/mL (≈ 7.77 µM)
- MIC (Sporothrix schenckii): 1.56 µg/mL (≈ 3.89 µM)
- MIC [2]: 3.12 µg/mL (≈ 7.77 µM)
- MIC (Aspergillus fumigatus): > 50 µg/mL
- MIC (Cryptococcus neoformans): 3.12 µg/mL (≈ 7.77 µM)
- MIC (Candida albicans [3]): 3.12 µg/mL (≈ 7.77 µM)
- MIC (Candida albicans [4]): 1.56 µg/mL (≈ 3.89 µM)
- MIC (Candida albicans [5]): 3.12 µg/mL (≈ 7.77 µM)
- MIC (Candida albicans [6]): 1.56 µg/mL (≈ 3.89 µM)
- MIC (Candida albicans [7]): 3.12 µg/mL (≈ 7.77 µM)
- MIC (Candida albicans [8]): 6.25 µg/mL (≈ 15.6 µM)
- MIC (Candida albicans [9]): 1.56 µg/mL (≈ 3.89 µM)
- MIC (Candida albicans [10]): 12.5 µg/mL (≈ 31.1 µM)
- Activity (L929 [12]): Non-toxic
- Activity (L929 [13]): Toxic

SMILES: O=C1/C(=C/c2ccco2)SC(=S)N1Cc1ccncc1
- MIC (Candida albicans [1]): 3.12 µg/mL (≈ 10.3 µM)
- MIC (Candida parapsilosis): 50 µg/mL (≈ 165 µM)
- MIC (Sporothrix schenckii): 3.12 µg/mL (≈ 10.3 µM)
- MIC [2]: 12.5 µg/mL (≈ 41.3 µM)
- MIC (Aspergillus fumigatus): > 50 µg/mL
- MIC (Cryptococcus neoformans): 25 µg/mL (≈ 82.7 µM)
- MIC (Candida albicans [4]): 1.56 µg/mL (≈ 5.16 µM)
- MIC (Candida albicans [5]): 25 µg/mL (≈ 82.7 µM)
- MIC (Candida albicans [7]): 3.12 µg/mL (≈ 10.3 µM)
- MIC (Candida albicans [9]): 6.25 µg/mL (≈ 20.7 µM)
- MIC (Candida albicans [10]): 6.25 µg/mL (≈ 20.7 µM)
- Ratio (Candida albicans [11]): 1
- Activity (L929 [12]): Non-toxic
- Activity (L929 [13]): Toxic

SMILES: O=C1/C(=C/c2cccc3ccccc23)SC(=S)N1Cc1ccncc1
- MIC (Candida albicans [1]): 25 µg/mL (≈ 69 µM)
- MIC (Candida parapsilosis): 50 µg/mL (≈ 138 µM)
- MIC (Sporothrix schenckii): 12.5 µg/mL (≈ 34.5 µM)
- MIC [2]: 25 µg/mL (≈ 69 µM)
- MIC (Aspergillus fumigatus): > 50 µg/mL
- MIC (Cryptococcus neoformans): 50 µg/mL (≈ 138 µM)

SMILES: O=C1/C(=C/c2ccc(/C=C3\SC(=S)N(Cc4ccncc4)C3=O)cc2)SC(=S)N1Cc1ccncc1
- MIC (Candida albicans [1]): > 50 µg/mL
- MIC (Candida parapsilosis): > 50 µg/mL
- MIC (Sporothrix schenckii): > 50 µg/mL
- MIC [2]: > 50 µg/mL
- MIC (Aspergillus fumigatus): > 50 µg/mL
- MIC (Cryptococcus neoformans): > 50 µg/mL

SMILES: O=C1/C(=C/c2ccc(OCCOc3ccc(/C=C4\SC(=S)N(Cc5ccncc5)C4=O)cc3)cc2)SC(=S)N1Cc1ccncc1
- MIC (Candida albicans [1]): > 50 µg/mL
- MIC (Candida parapsilosis): > 50 µg/mL
- MIC (Sporothrix schenckii): > 50 µg/mL
- MIC [2]: > 50 µg/mL
- MIC (Aspergillus fumigatus): > 50 µg/mL
- MIC (Cryptococcus neoformans): > 50 µg/mL

SMILES: O=C1/C(=C/c2ccc(OCCCOc3ccc(/C=C4\SC(=S)N(Cc5ccncc5)C4=O)cc3)cc2)SC(=S)N1Cc1ccncc1
- MIC (Candida albicans [1]): > 50 µg/mL
- MIC (Candida parapsilosis): > 50 µg/mL
- MIC (Sporothrix schenckii): > 50 µg/mL
- MIC [2]: > 50 µg/mL
- MIC (Aspergillus fumigatus): > 50 µg/mL
- MIC (Cryptococcus neoformans): > 50 µg/mL

SMILES: O=C1/C(=C/c2ccc(OCCCCOc3ccc(/C=C4\SC(=S)N(Cc5ccncc5)C4=O)cc3)cc2)SC(=S)N1Cc1ccncc1
- MIC (Candida albicans [1]): > 50 µg/mL
- MIC (Candida parapsilosis): > 50 µg/mL
- MIC (Sporothrix schenckii): > 50 µg/mL
- MIC [2]: > 50 µg/mL
- MIC (Aspergillus fumigatus): > 50 µg/mL
- MIC (Cryptococcus neoformans): > 50 µg/mL

SMILES: O=C1/C(=C/c2ccc(OCCCCCOc3ccc(/C=C4\SC(=S)N(Cc5ccncc5)C4=O)cc3)cc2)SC(=S)N1Cc1ccncc1
- MIC (Candida albicans [1]): > 50 µg/mL
- MIC (Candida parapsilosis): > 50 µg/mL
- MIC (Sporothrix schenckii): > 50 µg/mL
- MIC [2]: > 50 µg/mL
- MIC (Aspergillus fumigatus): > 50 µg/mL
- MIC (Cryptococcus neoformans): > 50 µg/mL

SMILES: Clc1ccccc1C(c1ccccc1)(c1ccccc1)n1ccnc1 [CLOTRIMAZOLE]
- MIC (Candida albicans [1]): 0.25 µg/mL (≈ 0.725 µM)
- MIC (Candida parapsilosis): 0.5 µg/mL (≈ 1.45 µM)
- MIC (Sporothrix schenckii): 4 µg/mL (≈ 11.6 µM)
- MIC [2]: 2 µg/mL (≈ 5.8 µM)
- MIC (Aspergillus fumigatus): 2 µg/mL (≈ 5.8 µM)
- MIC (Cryptococcus neoformans): 0.25 µg/mL (≈ 0.725 µM)

SMILES: OC(Cn1cncn1)(Cn1cncn1)c1ccc(F)cc1F [FLUCONAZOLE]
- MIC (Candida albicans [1]): 1 µg/mL (≈ 3.27 µM)
- MIC (Candida parapsilosis): 0.5 µg/mL (≈ 1.63 µM)
- MIC (Sporothrix schenckii): 4 µg/mL (≈ 13.1 µM)
- MIC [2]: 16 µg/mL (≈ 52.2 µM)
- MIC (Aspergillus fumigatus): > 32 µg/mL
- MIC (Cryptococcus neoformans): 2 µg/mL (≈ 6.53 µM)
- MIC (Candida albicans [3]): 1 µg/mL (≈ 3.27 µM)
- MIC (Candida albicans [4]): 0.25 µg/mL (≈ 0.816 µM)
- MIC (Candida albicans [5]): 0.125 µg/mL (≈ 0.408 µM)
- MIC (Candida albicans [6]): 0.25 µg/mL (≈ 0.816 µM)
- MIC (Candida albicans [7]): 4 µg/mL (≈ 13.1 µM)
- MIC (Candida albicans [8]): 0.5 µg/mL (≈ 1.63 µM)
- MIC (Candida albicans [9]): 0.062 µg/mL (≈ 0.202 µM)
- MIC (Candida albicans [10]): 8 µg/mL (≈ 26.1 µM)
